SMILES strings stand for the structures. Some results are limits rather than exact numbers.

The target in this test is T1, cloned human CCR8 receptor stably expressed in L1.2 cells (Homo sapiens, UniProt P51685).
T1 construct: expressed in transfected cells
T1 sequence (P51685 whole entry): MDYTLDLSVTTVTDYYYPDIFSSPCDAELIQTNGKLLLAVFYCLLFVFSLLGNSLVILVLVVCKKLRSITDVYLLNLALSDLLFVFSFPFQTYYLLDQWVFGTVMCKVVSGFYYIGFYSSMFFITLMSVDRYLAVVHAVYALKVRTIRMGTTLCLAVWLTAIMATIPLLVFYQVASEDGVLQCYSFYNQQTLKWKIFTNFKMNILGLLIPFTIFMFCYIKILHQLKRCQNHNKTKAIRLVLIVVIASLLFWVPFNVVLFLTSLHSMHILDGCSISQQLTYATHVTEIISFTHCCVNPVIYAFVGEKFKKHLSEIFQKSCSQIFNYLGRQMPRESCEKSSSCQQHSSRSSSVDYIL
Description: whole cell binding screen: inhibition of biotinylated human I309 binding to CCR8 (FMAT 8100 HTS). Particulars: L1.2/hCCR8 cells, biotinylated human I-309, 10 point concentration response starting at 10 μM; read-out: Ki of compounds to inhibit I-309 binding to CCR8. The text has this:
This whole cell binding screen evaluates the ability of compounds to inhibit biotinlyated human I309 binding to the cloned human CCR8 receptor stably expressed in L1.2 cells. Human CCR8 gene was amplified by PCR using PFU polymerase under standard conditions from human genomic DNA purchased from Stratagene. The PCR primers used were:
The 5′ and 3′ primers contained flanking enzyme sites (Bam Hi and Not 1,respectively), which were used to subclone the gene into pcDNA3.1. […] The CCR8 vector was then transfected into L1.2 cells (murine pre-B cells) by electroporation.
Compounds were screened using the FMAT™ 8100 HTS System (purchased from Applied Biosystems).
A suspension was prepared of L1.2/hCCR8 cells at 4.0×10^5 cells/mL in a binding buffer (Buffer consisting of Hanks Balanced Salt Solution (without phenol red), 10 mM HEPES, 0.1% Fatty Acid Free BSA, 0.02% Sodium Azide).
Dilution series of 10 mM stock concentrations of the test compounds were prepared in DMSO and further diluted into binding buffer defined above) to three times the final assay concentration.
10 point concentration response curve is constructed for each compound, starting at 10 μM (final assay concentration in Binding Buffer). […] The components were mixed in wells by covering the plate with aluminum foil and rotating for 0.5 hours. […] Average fluorescence reported for each concentration was normalized to percent inhibition based on negative (no inhibitor) and positive (100 nM excess unlabeled I309 (R and D Systems)) controls.
For orientation: Ki means the dissociation constant of the complex between target and ligand, obtained from inhibition or displacement. For the molecule `CC(=O)N1CC[C@H](NS(=O)(=O)c2ccc(NC(=O)c3ccccc3C)c3ccccc23)[C@@H](C)C1` (racemic) [Compound C-31, (±)-(trans)-N-[4-(1-Acetyl-3-methyl-piperidin-4-ylsulfamoyl)-naphthalen-1-yl]-2-methyl-benzamide], the Ki is below 500 nM. The result for `CCC(C)N1CCC(NS(=O)(=O)c2ccc(NC(=O)c3ccccc3C)c3ccccc23)CC1` (racemic) [Compound C-32, (±)-N-[4-(1-sec-Butyl-piperidin-4-ylsulfamoyl)-naphthalen-1-yl]-2-methyl-benzamide] reads below 1000 nM; that for `Cc1ccccc1C(=O)Nc1ccc(S(=O)(=O)NC2CCNC2)c2ccccc12` (racemic) [Compound C-48, (±)-2-Methyl-N-[4-(pyrrolidin-3-ylsulfamoyl)-naphthalen-1-yl]-benzamide], below 500 nM; that for `CCNC(=O)N1CCC(NS(=O)(=O)c2ccc(NC(=O)c3ccccc3C)c3ccccc23)C1` (racemic) [Compound C-52, (±)-3-[4-(2-Methyl-benzoylamino)-naphthalene-1-sulfonylamino]-pyrrolidine-1-carboxylic acid ethylamide], below 500 nM. Turning to `Cc1ccccc1C(=O)Nc1ccc(S(=O)(=O)NC2[C@@H](C)CNC[C@@H]2C)c2ccccc12` (racemic) [Compound C-64, (±)-(cistrans)-N-[4-(3,5-Dimethyl-piperidin-4-ylsulfamoyl)-naphthalen-1-yl]-2-methyl-benzamide], the Ki was below 500 nM. The result for `Cc1ccccc1C(=O)Nc1ccc(S(=O)(=O)NC2[C@@H](C)CN(C(=O)N(C)C)C[C@@H]2C)c2ccccc12` (racemic) [Compound C-65, (±)-(cisstrans)-3,5-Dimethyl-4-[4-(2-methyl-benzoylamino)-naphthalene-1-sulfonylainno]-piperidine-1-carboxylic acid dimethylamide] reads below 500 nM.

Regarding `CCCC(=O)N1C[C@H](C)C(NS(=O)(=O)c2ccc(NC(=O)c3ccccc3C)c3ccccc23)[C@@H](C)C1` (racemic) [Compound C-66, (±)-(cistrans)-N-[4-(1-Butyryl-3,5-dimethyl-piperidin-4-ylsulfamoyl)-naphthalen-1-yl]-2-methyl-benzamide], the Ki was below 500 nM. The result for `CCOC(=O)N1C[C@H](C)C(NS(=O)(=O)c2ccc(NC(=O)c3ccccc3C)c3ccccc23)[C@@H](C)C1` (racemic) [Compound C-67, (±)-(cistrans)-3,5-Dimethyl-4-[4-(2-methyl-benzoylamino)-naphthalene-1-sulfonylamino]-piperidine-1-carboxylic acid ethyl ester] reads below 500 nM; that for `C[C@@H]1CNCC[C@@H]1NS(=O)(=O)c1ccc(N2C(=O)c3ccccc3C2=O)c2ccccc12` (racemic) [Compound C-74, (±)-(cis)-4-(1,3-Dioxo-1,3-dihydro-isoindol-2-yl)-naphthalene-1-sulfonic acid (3-methyl-piperidin-4-yl)-amide], below 30000 nM.

For `CCCC(=O)N1CC[C@H](NS(=O)(=O)c2ccc(N3C(=O)c4ccccc4C3=O)c3ccccc23)[C@H](C)C1` (racemic) [Compound C-75, (±)-(cis)-4-(1,3-Dioxo-1,3-dihydro-isoindol-2-yl)-naphthalene-1-sulfonic acid (1-butyryl-3-methyl-piperidin-4-yl)-amide], the Ki is below 500 nM.

For the molecule `CCCC(=O)N1CC[C@H](NS(=O)(=O)c2ccc(NC(=O)c3ccccc3C)c3ccccc23)[C@@H](CO)C1` (racemic) [Compound C-76, (±)-(trans)-N-[4-(1-butyryl-3-hydroxymethyl-piperidin-4-ylsulfamoyl)-naphthalen-1-yl]-2-methyl-benzamide], the Ki was below 500 nM. Under `CCOC(=O)[C@@H]1CNCC[C@@H]1NS(=O)(=O)c1ccc(NC(=O)c2ccccc2C)c2ccccc12` (racemic) [Compound C-77, (±)-(cis)-4-[4-(2-Methyl-benzoylamino)-naphthalene-1-sulfonylamino]-piperidine-3-carboxylic acid ethyl ester] stands below 30000 nM; under `CCCC(=O)N1CC[C@H](NS(=O)(=O)c2ccc(NC(=O)c3ccccc3C)c3ccccc23)[C@H](C(=O)O)C1` (racemic) [Compound C-78, (±)-(cis)-1-Butyryl-4-[4-(2-methyl-benzoylamino)-naphthalene-1-sulfonylamino]-piperidine-3-carboxylic acid], below 30000 nM. The result for `CCOC(=O)[C@H]1CN(C(=O)OCC)CC[C@@H]1NS(=O)(=O)c1ccc(NC(=O)c2ccccc2C)c2ccccc12` (racemic) [Compound C-79, (±)-(trans)-4-[4-(2-Methyl-benzoylamino)-naphthalene-1-sulfonylamino]-piperidine-1,3-dicarboxylic acid diethyl ester] reads below 30000 nM; that for `CCCC(=O)N1CC[C@H](NS(=O)(=O)c2ccc(NC(=O)c3ccccc3C)c3ccccc23)[C@H](CO)C1` (racemic) [Compound C-80, (±)-(cis)-N-[4-(1-Butryl-3-hydroxymethyl-piperidin-4-ylsulfamoyl)-naphthalen-1-yl]-2-methyl-benzamide], below 500 nM; that for `CCOC(=O)N1CC[C@H](NS(=O)(=O)c2ccc(NC(=O)c3ccccc3C)c3ccccc23)[C@H](CO)C1` (racemic) [Compound C-81, (±)-(cis)-3—Hydroxymethyl-4-[4-(2-methyl-benzoylamino)-naphthalene-1-sulfonylamino]-piperidine-1-carboxylic acid ethyl ester], below 500 nM. As for `CCOC(=O)N1CC[C@H](NS(=O)(=O)c2ccc(NC(=O)c3ccccc3C)c3ccccc23)[C@@H](CO)C1` (racemic) [Compound C-82, (±)-(trans)-3—Hydroxymethyl-4-[4-(2-methyl-benzoylamino)-naphthalene-1-sulfonylamino]-piperidine-1-carboxylic acid ethyl ester], the Ki was below 500 nM. The result for `Cc1ccccc1C(=O)Nc1ccc(S(=O)(=O)NC2CCCNC2)c2ccccc12` (racemic) [Compound C-112, (±)-2-Methyl-N-[4-(piperidin-3-ylsulfamoyl)-naphthalen-1-yl]-benzamide] reads below 1000 nM; that for `CCNC(=O)N1CCCC(NS(=O)(=O)c2ccc(NC(=O)c3ccccc3C)c3ccccc23)C1` (racemic) [Compound C-113, (±)-3-[4-(2-Methyl-benzoylangno)-naphthalene-1-sulfonylamino]-piperidine-1-carboxylic acid ethylamide], below 500 nM. Under `CCCC(=O)N1CCCC(NS(=O)(=O)c2ccc(NC(=O)c3ccccc3C)c3ccccc23)C1` (racemic) [Compound C-114, (±)-N-[4-(I-Butyryl-piperidin-3-ylsulfamoyl)-naphthalen-1-yl]-2-methyl-benzamide] stands below 500 nM; under `CCOC(=O)N1CCCC(NS(=O)(=O)c2ccc(NC(=O)c3ccccc3C)c3ccccc23)C1` (racemic) [Compound C-115, (±)-3-[4-(2-Methyl-benzoylamno)-naphthalene-1-sulfonylamino]-piperidine-1-carboxylic acid ethyl ester], below 500 nM.

On to `CCOC(=O)N1CC[C@H](NS(=O)(=O)c2ccc(NC(=O)c3ccccc3C)c3ccccc23)[C@H](C)C1` (racemic) [Compound C-136, (±)-cis-3-Methyl-4-[4-(2-methyl-benzoylamino)-naphthalene-1-sulfonylamino]-piperidine-1-carboxylic acid ethyl ester], for which the Ki is below 500 nM.

The record behind these values is patent publication US7491827B2, “Aryl sulfonamides useful as inhibitors of chemokine receptor activity” (Millennium Pharmaceuticals, Inc., priority 2003, dated 2009).
